Results taken from patent publication US20250345492A1, “AN ANTIBACTERIAL POLYPEPTIDE COMPOUND, A MEDICAL DEVICE, HYDROGEL AND USE THEREOF” (priority 2020, published 2025).
≈ marks a conversion by molar mass, not a printed value. Square brackets hold non-standard residues; d marks the D form. Peptide text beside a SMILES is read from it. Dap = NC[C@H](N)C(=O)O

How the values were obtained:
[1] = tested on: C. tropicalis ATCC750; details: ATCC750
Source text: (§1) With respect to the determination of antibacterial activity and antifungal activity of the antibacterial polypeptide compounds, the bacterial strains employed included: E. coli (ATCC 25922), E. coli (ATCC 43837), Pseudomonas aeruginosa (ATCC 27853), Klebsiella pneumoniae (ATCC 700603), Cronobacter sakazakii (ATCC 29544), Staphylococcus aureus (ATCC 29213), Bacillus subtilis (ATCC 23857) and Staphylococcus epidermidis (ATCC 12228); and the fungal strains employed included Candida albicans (ATCC 14053), Candida glabrata (ATCC 2001), Candida parapsilosis (ATCC 22019), Candida tropicalis (ATCC 750) and Candida krusei (ATCC 6258), all of which were standard strains from American Type Culture Collection. In addition, drug-resistant strains S-1a, S-2a, S-3a, S-4a, E-1b, E-2b, E-3b, E-4b, E-5b, P-1c, P-2c, P-3c, P-4c, P-5c, and clinically isolated fungal strains Candida glabrata 2-1 and Candida albicans 14-1, 14-2 and 14-3 were employed, all which were clinically isolated.
(§2) Simply, a proper amount of the cryopreserved bacterium or fungus was added to fresh MH/SD medium, and cultured on a shaker overnight at 180 rpm at 37° C. The obtained cells were seeded again and cultured on a shaker for 4-5 hours to obtain cells in logarithmic phase. The resulting cells were added to a 96-well plate (1×10^5 CFU/ml, 100 μL/well), and then 100 μL of polypeptide with different concentrations (1-256 μM) twice the final concentrations was added to corresponding well according to the 2-fold serial dilution method. The fresh medium was used as a negative control, which was prepared in triplicate for each concentration. After dosing, the 96-well plate was placed in an incubator at constant 37° C. and humidity for 12 hours to observe the results. According to naked eye observations, the concentration of the compound in the first transparent well following the turbid wells was recorded as the MIC of the compound, namely, the MIC value of the compound to the bacterium or fungus.

[2] = tested on: Bacillus subtilis (ATCC 23857); details: ATCC 23857
Source text: as §1, §2

[3] = tested on: Staphylococcus epidermidis (ATCC 12228); details: ATCC 12228
Source text: as §1, §2

[4] = tested on: C. krusei ATCC6258; details: ATCC6258
Source text: as §1, §2

[5] = tested on: Cronobacter sakazakii (ATCC 29544); details: ATCC 29544
Source text: as §1, §2

[6] = tested on: C. parapsilosis ATCC2001; details: ATCC2001
Source text: as §1, §2

[7] = tested on: Pseudomonas aeruginosa (ATCC 27853); details: standard strain
Source text: as §1, §2

[8] = tested on: C. glabrata ATCC22019; details: ATCC22019
Source text: as §1, §2

[9] = tested on: C. albicans ATCC14053; details: ATCC14053
Source text: as §1, §2

[10] = tested on: E. coli (ATCC 25922); details: ATCC 25922
Source text: as §1, §2

[11] = tested on: Staphylococcus aureus (ATCC 29213); details: ATCC 29213
Source text: as §1, §2

Row | Molecule | MIC C. tropicalis ATCC750 [1] | MIC B. subtilis ATCC23857 [2] | MIC S. epidermidis ATCC12228 [3] | MIC C. krusei ATCC6258 [4] | MIC C. sakazakii ATCC29544 [5] | MIC C. parapsilosis ATCC2001 [6] | MIC P. aerugmosa ATCC27853 [7] | MIC C. glabrata ATCC22019 [8] | MIC C. albicans ATCC14053 [9] | MIC C. coli ATCC25922 [10] | MIC S. aureus ATCC29213 [11]
1 | H-PFRLSLRL-NH2 [Compound 6] | 16 µM | 16 µM | 16 µM | 32 µM | 16 µM | 16 µM | 32 µM | 8 µM | 32 µM | 8 µM | 64 µM
2 | H-PFRLSLHL-NH2 [Compound 4] | 32 µM | 16 µM | 32 µM | 32 µM | 32 µM | 16 µM | 32 µM | 32 µM | 32 µM | 32 µM | 128 µM
3 | H-PWRLSLHL-NH2 [Compound 12] | 16 µM | 16 µM | 8 µM | 32 µM | 16 µM | 16 µM | 32 µM | 16 µM | 32 µM | 16 µM | 32 µM
4 | CC(C)C[C@H](NC(=O)[C@H](CN)NC(=O)[C@H](CC(C)C)NC(=O)[C@H](CN)NC(=O)[C@H](CC(C)C)NC(=O)[C@H](CN)NC(=O)[C@H](Cc1c[nH]c2ccccc12)NC(=O)[C@@H]1CCCN1)C(N)=O [Compound 11, Pro-Trp-Dap-Leu-Dap-Leu-Dap-Leu-NH2] (H-PW[Dap]L[Dap]L[Dap]L-NH2) | 16 µM (≈ 14.4 µg/mL) | 16 µM (≈ 14.4 µg/mL) | 16 µM (≈ 14.4 µg/mL) | 32 µM (≈ 28.7 µg/mL) | 16 µM (≈ 14.4 µg/mL) | 16 µM (≈ 14.4 µg/mL) | 64 µM (≈ 57.5 µg/mL) | 16 µM (≈ 14.4 µg/mL) | 64 µM (≈ 57.5 µg/mL) | 16 µM (≈ 14.4 µg/mL) | 32 µM (≈ 28.7 µg/mL)
5 | H-PWRLSLRL-NH2 [Compound 14] | 8 µM | 8 µM | 16 µM | 32 µM | 8 µM | 8 µM | 8 µM | 8 µM | 8 µM | 8 µM | 32 µM
